Experimental findings from PMC4704819, “Honey Bee Allatostatins Target Galanin/Somatostatin-Like Receptors and Modulate Learning: A Conserved Function?” (PLoS ONE, 2016) are described below.

Structures are written as SMILES. Entries after “also recorded” stand apart in the source; their conditions may differ. Where a SMILES comes first, the peptide text is derived from it. Bridges are numbered along the chain shown (N, C = ends).

This test addresses T1, Apime-ASTC-R (Apis mellifera, UniProt A0A7M7GNE5).
T1 sequence (A0A7M7GNE5 1-423): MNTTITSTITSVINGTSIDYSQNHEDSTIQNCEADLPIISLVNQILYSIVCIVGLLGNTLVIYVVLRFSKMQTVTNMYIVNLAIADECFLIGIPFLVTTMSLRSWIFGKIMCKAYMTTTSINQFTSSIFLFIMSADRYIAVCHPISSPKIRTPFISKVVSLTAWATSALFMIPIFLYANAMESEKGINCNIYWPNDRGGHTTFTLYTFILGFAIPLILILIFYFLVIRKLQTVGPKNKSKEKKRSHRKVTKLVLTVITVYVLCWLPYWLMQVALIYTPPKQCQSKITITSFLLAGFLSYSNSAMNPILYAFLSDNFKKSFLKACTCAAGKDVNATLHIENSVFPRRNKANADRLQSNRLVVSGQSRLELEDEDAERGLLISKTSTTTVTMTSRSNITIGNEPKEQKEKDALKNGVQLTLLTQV
The test can be described thus: Intracellular cAMP reporter assay, HEK293 cells expressing Apime-ASTC-R. In kind it is cell-based. Particulars: CRE-luciferase, IBMX, 10^-14 to 10^-3 M, Fig 5D-E, ASTCC effect at high concentrations (>10 μM). As for the experimental part:
For intracellular cAMP measurements, cells were bathed in trypsin EDTA and collected, then suspended in fresh DMEM. Transfections with pRK5-ApimeAstC-R, pRK5-ApimeAstA-R or empty pRK5 vector were carried out in 15 ml Falcon tubes. Transfection medium for HEK293 cells was prepared using the Lipofectamine LTX kit (Invitrogen) with 2.5 ml Opti-MEM® (Gibco), 12.5 μl Plus™ Reagent and 4 μg of ApimeASTC-R (or ApimeASTA-R, or empty) expression construct, and 2 μg of CRE(6x)-Luc plasmid. The luciferase ORF, downstream of six tandem repeats of a cyclic AMP responsive element (CRE), in front of a minimum collate promoter, was used as a reporter gene (this reporter plasmid has been used by others)
We followed a previousy published protocol: HEK293 cells in Dulbecco's Modified Eagles Medium nutrient mixture F12-Ham (DMEM/F12, Sigma–Aldrich) supplemented with 10% heat-inactivated fetal bovine serum (Gibco), 100 IU/ml penicillin, 100 μg/ml streptomycin (Gibco) were maintained in an incubator at 37°C with constant supply of 5% CO2, until they reached 60–80% confluence. Cells were then bathed in trypsin EDTA (Gibco) until rounded. The flask was then tapped to loosen the cells, which were subsequently washed off with 5 ml DMEM/F12. The cells were gently centrifuged at 800 rpm for 5 minutes and carefully suspended in fresh DMEM, which was divided in two for transfection with receptor constructs or empty vectors. After 5 min at room temperature, 30 μl LTX was added. After an incubation period of 30 min at room temperature, the DNA/LTX mix was added to the cells. The cells were then aliquoted (100 μl per well) into a clear bottom 96-well plate (Greiner bio-one #655090) and incubated overnight (37°C, 5% CO2).
Prior to measuring cAMP, the cell medium was removed by carefully inverting the 96-well plate on filter paper and quickly replaced with 100 μl of DMEM/F12 without phenol red (Invitrogen), but containing 200 μM 3-isobutyl-1-methylxanthine (IBMX, Sigma–Aldrich) to prevent cAMP breakdown, as well as drugs to be tested. In each experiment, some wells were used to measure basal levels of cAMP in the cells (negative control), while others were used to measure cAMP levels in cells exposed to 10 μM forskolin analogue (NKH-477, Sigma Aldrich, positive control). […] All cells were incubated at 37°C and 5% CO2 for 3–4 h to allow transcription of the reporter gene before 100 μl of freshly reconstituted Steadylite Plus™ substrate (PerkinElmer) was added to each well. The 96-well plate was then placed in the dark for 15 min before light emission resulting from luciferase enzymatic activity was recorded. Measurements lasting 0.2 s/well were taken every 55 s for 10 cycles using a FLUOstar Omega microplate reader (BMG Labtech). Results were analyzed by means of the Omega software packages and further processed by Excel and GraphPad Prism softwares. In order to facilitate comparisons across experiments, bioluminescence levels are expressed relative to those in mock-transfected cells (transfected with the vector devoid of the receptor sequence) untreated with NKH-477, which were arbitrarily set at 100.
To test this prediction, we expressed the two receptors separately in HEK293 cells together with the luciferase reporter gene, downstream of the cAMP response element, CRE, but without exogenous G proteins.
For orientation: A reporter such as luciferase makes a cellular process visible.

Regarding `CC(C)[C@@H]1NC(=O)[C@H](C)NC(=O)[C@H](CC(N)=O)NC(=O)[C@H](Cc2ccccc2)NC(=O)[C@H](Cc2ccc(O)cc2)NC(=O)[C@@H](NC(=O)[C@H](CCCNC(=N)N)NC(=O)[C@H](Cc2c[nH]c3ccccc23)NC(=O)[C@H](Cc2ccc(O)cc2)NC(=O)[C@@H](NC(=O)[C@H](CCCNC(=N)N)NC(=O)CNC(=O)[C@H](CCCCN)NC(=O)[C@H](C)NC(=O)[C@H](CCC(N)=O)NC(=O)CN)C(C)C)CSSC[C@@H](C(=O)N[C@@H](Cc2ccccc2)C(=O)O)NC(=O)[C@H]([C@@H](C)O)NC1=O` [Apime-ASTCC] (H-GQAKGRVYWRCYFNAVTCF-OH; disulfide 11-18; N-terminus assumed), the “effect on cAMP levels (bioluminescence), in words” value (shortened to “effect on cAMP levels”) is given as “increased bioluminescence levels at high concentrations; also recorded: small increase in intracellular cAMP”. The “effect on cAMP levels” value (listed as ASTCC) was “increased cAMP levels in the cells slightly”.
For the compound `CC(C)[C@@H]1NC(=O)[C@H](C)NC(=O)[C@H](CC(N)=O)NC(=O)[C@H](Cc2ccccc2)NC(=O)[C@H](C)NC(=O)[C@@H](NC(=O)[C@H](CCC(N)=O)NC(=O)[C@H](CCCCN)NC(=O)[C@H](Cc2c[nH]c3ccccc23)NC(=O)[C@H](Cc2ccc(O)cc2)NC(=O)[C@@H](N)CO)CSSC[C@@H](C(=O)N[C@@H](Cc2ccccc2)C(N)=O)NC(=O)[C@H](CO)NC1=O` [Apime-ASTC] (H-SYWKQCAFNAVSCF-NH2; disulfide 6-13; N-terminus assumed), the “effect on cAMP levels” value is given as “did not change the bioluminescence levels”. In addition, for the setting “listed as ASTC”, the “effect on cAMP levels” value is reported as “failed to increase intracellular cAMP levels”.
